ChEMBL document CHEMBL1131405, “Novel bisphosphonate inhibitors of phosphoglycerate kinase” (Bioorg Med Chem Lett, 1998)

Legend:
[1] = Dissociation constant (pKa4); type: physicochemical; conditions: read-out: pKa4
[2] = Dissociation constant (pKa3); type: physicochemical; conditions: read-out: pKa3

## O=P(O)(O)Cc1cccc(CP(=O)(O)O)c1
[1]
  pKa: 7.71
[2]
  pKa: 7.11

## O=P(O)(O)C(F)c1cccc(C(F)P(=O)(O)O)n1 (stereo unspecified)
[1]
  pKa: 5.3
[2]
  pKa: 5.18

## O=P(O)(O)Cc1cccc(CP(=O)(O)O)n1
[1]
  pKa: 8.49
[2]
  pKa: 6.7

## O=P(O)(O)Cc1cccc(C(O)P(=O)(O)O)c1 (stereo unspecified)
[1]
  pKa: 7.29
[2]
  pKa: 6.98

## Cc1cc(C)c(CP(=O)(O)O)cc1CP(=O)(O)O
[1]
  pKa: 7.78
[2]
  pKa: 7.24

## O=P(O)(O)C(F)(F)c1cccc(C(F)(F)P(=O)(O)O)n1
[1]
  pKa: 5.3
[2]
  pKa: 5.18

## O=P(O)(O)Cc1ccccc1CP(=O)(O)O
[1]
  pKa: 8.53
[2]
  pKa: 7.1

## O=P(O)(O)Cc1cccc(P(=O)(O)O)c1
[1]
  pKa: 7.61
[2]
  pKa: 6.47

## Cc1cc(C)c(CP(=O)(O)O)c(C)c1CP(=O)(O)O
[1]
  pKa: 8.16
[2]
  pKa: 7.4

## O=P(O)(O)C(F)c1ccc(C(F)P(=O)(O)O)cc1 (stereo unspecified)
[1]
  pKa: 6.37
[2]
  pKa: 6.02

## O=P(O)(O)c1cccc(C(F)P(=O)(O)O)c1 (stereo unspecified)
[1]
  pKa: 6.99
[2]
  pKa: 5.8

## O=P(O)(O)c1cccc(C(O)P(=O)(O)O)c1 (stereo unspecified)
[1]
  pKa: 7.46
[2]
  pKa: 6.55

## Cc1cc(C)c(C(F)(F)P(=O)(O)O)cc1C(F)(F)P(=O)(O)O
[1]
  pKa: 5.92
[2]
  pKa: 5.33

## O=P(O)(O)C(O)c1cccc(C(O)P(=O)(O)O)c1 (stereo unspecified)
[1]
  pKa: 7.23
[2]
  pKa: 6.78

## O=P(O)(O)Cc1ccc(C(F)P(=O)(O)O)cc1 (stereo unspecified)
[1]
  pKa: 7.72
[2]
  pKa: 6.3

## O=P(O)(O)Cc1ccc(C(F)(F)P(=O)(O)O)cc1
[1]
  pKa: 6.63
[2]
  pKa: 5.27

## O=P(O)(O)c1cccc(C(F)(F)P(=O)(O)O)c1
[1]
  pKa: 6.9
[2]
  pKa: 5.61

## C=C(CP(=O)(O)O)CP(=O)(O)O
[1]
  pKa: 7.45
[2]
  pKa: 6.45

## O=P(O)(O)C(F)c1cccc(C(F)P(=O)(O)O)c1 (stereo unspecified)
[1]
  pKa: 6.37
[2]
  pKa: 6.01

## O=P(O)(O)C(F)(F)c1ccc(C(F)(F)P(=O)(O)O)cc1
[1]
  pKa: 5.6
[2]
  pKa: 4.82

## O=P(O)(O)C(O)c1cccc(C(O)P(=O)(O)O)n1 (stereo unspecified)
[1]
  pKa: 7.58
[2]
  pKa: 6.57

## O=P(O)(O)Cc1ccc(CP(=O)(O)O)cc1
[1]
  pKa: 7.49
[2]
  pKa: 7.03

## O=P(O)(O)Cc1cccc(C(F)(F)P(=O)(O)O)c1
[1]
  pKa: 5.84
[2]
  pKa: 5.04
